Experimental data taken from the Kinase Knowledgebase extract (Sharma et al. 2016).

Target: PIK3CA (human) (UniProt P42336)
Experiment: Assessment of PIK3CA Kinase Activity

Chain of PIK3CA (human) (P42336 whole entry, looked up): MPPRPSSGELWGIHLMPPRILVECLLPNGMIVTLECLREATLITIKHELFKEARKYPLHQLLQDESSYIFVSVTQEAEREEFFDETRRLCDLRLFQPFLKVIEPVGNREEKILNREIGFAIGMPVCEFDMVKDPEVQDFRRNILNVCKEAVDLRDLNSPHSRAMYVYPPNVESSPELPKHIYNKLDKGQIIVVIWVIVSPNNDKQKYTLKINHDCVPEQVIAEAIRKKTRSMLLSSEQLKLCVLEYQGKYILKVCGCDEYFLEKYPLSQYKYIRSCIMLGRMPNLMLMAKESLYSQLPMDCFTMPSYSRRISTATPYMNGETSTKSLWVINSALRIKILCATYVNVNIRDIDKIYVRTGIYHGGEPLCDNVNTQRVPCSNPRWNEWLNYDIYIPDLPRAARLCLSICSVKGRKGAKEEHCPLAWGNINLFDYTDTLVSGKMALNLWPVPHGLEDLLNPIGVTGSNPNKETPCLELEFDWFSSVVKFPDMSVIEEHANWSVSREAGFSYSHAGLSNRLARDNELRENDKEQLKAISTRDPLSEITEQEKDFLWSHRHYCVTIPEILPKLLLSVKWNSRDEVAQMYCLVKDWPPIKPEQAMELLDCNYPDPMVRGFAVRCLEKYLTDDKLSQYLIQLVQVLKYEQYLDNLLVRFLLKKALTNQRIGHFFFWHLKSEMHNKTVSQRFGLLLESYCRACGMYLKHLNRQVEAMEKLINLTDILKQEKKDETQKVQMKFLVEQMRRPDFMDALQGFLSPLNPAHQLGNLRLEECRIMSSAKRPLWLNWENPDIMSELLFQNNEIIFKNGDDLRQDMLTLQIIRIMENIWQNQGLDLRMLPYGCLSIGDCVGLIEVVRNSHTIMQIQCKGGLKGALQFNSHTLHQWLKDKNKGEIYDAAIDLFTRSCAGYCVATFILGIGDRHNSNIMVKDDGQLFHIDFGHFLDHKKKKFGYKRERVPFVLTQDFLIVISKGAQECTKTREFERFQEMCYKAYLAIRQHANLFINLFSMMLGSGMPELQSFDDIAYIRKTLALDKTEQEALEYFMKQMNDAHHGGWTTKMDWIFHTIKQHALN

IC50, < 1 µM:
CC(C)n1ncnc1-n1cc2c(n1)-c1cc(C(=O)N3CCNCC3)ccc1OCC2
CC(C)n1ncnc1-c1cc2n(n1)-c1cc(C(=O)N3CCS(=O)(=O)CC3)ccc1OCC2
O=C(CO)N1CCC(c2ccc3c(c2)-n2nc(-c4ncnn4CC(F)(F)F)cc2CCO3)CC1
NC(=O)CN1CCC(c2ccc3c(c2)-n2nc(-c4ncnn4CC(F)(F)F)cc2CCO3)CC1
CCc1ccccc1-c1cn2c(n1)-c1ccc(C(=O)OC)cc1OCC2
Nc1nc(-c2cn3c(n2)-c2ccc(-c4ccc(Cl)cc4)cc2OCC3)n(-c2ccccc2Cl)n1
CC(C)n1ncnc1-c1cn2c(n1)-c1ccc(C3C(=O)NNC3=O)cc1OCC2
CC(C)n1nc(N)nc1-c1cn2c(n1)-c1ccccc1OCC2
CC(C)n1ncnc1-c1cn2c(n1)-c1cc(-c3ccc(Cl)cc3)ccc1OCC2
CC(C)n1ncnc1-c1cn2c(n1)-c1ccc(-c3cn(C)c(CC(C)(C)O)n3)cc1OCC2
OCCN1CCN(Cc2ccc3c(c2)-n2nc(-c4ncnn4CC(F)(F)F)cc2CCO3)CC1
CC(C)n1ncnc1-c1cn2c(n1)-c1ccc(-c3cn[nH]c3)cc1OCC2
CC(C)n1ncnc1-c1cn2c(n1)-c1ccc(C3=CCN(C)CC3C(N)=O)cc1OCC2 (centres undefined)
CC(C)N1CCC(c2ccc3c(c2)OCCn2cc(-c4ncnn4C(C)C)nc2-3)CC1
CC(C)n1ncnc1-n1cc2c(n1)-c1ccc(-c3cnn(CCO)c3)cc1OCC2
CC(=O)N1CC(c2ccc3c(c2)-n2nc(-c4ncnn4C(C)C)cc2CCO3)C1
CC(C)n1ncnc1-c1cn2c(n1)-c1ccc(C(=O)NCCS(C)(=O)=O)cc1OCC2
CNC(=O)CN1CC(c2ccc3c(c2)OCCn2cc(-c4ncnn4C(C)C)nc2-3)C1
CC(C)n1ncnc1-c1cn2c(n1)-c1cc(C(N)=O)ccc1OCC2
Cc1nc(-c2cn3c(n2)-c2cnc(NCC(=O)O)cc2OCC3)n(C(C)C)n1
CC(C)n1ncnc1-c1cn2c(n1)-c1cnc(N3C[C@H](C#N)C[C@H]3C(N)=O)cc1OCC2
Cc1nc(-c2cn3c(n2)-c2ccc(-c4cncnc4)cc2OCC3)n(C(C)C)n1
CC(C)n1ncnc1-c1cn2c(n1)-c1ccc(OC(C(N)=O)C3CC3)cc1OCC2 (centres undefined)
Cc1nc(-c2cn3c(n2)-c2cnc(N4CC[C@@H](O)[C@H]4C(N)=O)cc2OCC3)n(C(C)C)n1
CC(C)n1ncnc1-c1cn2c(n1)-c1ccc(N(C)[C@@H](C)C(N)=O)cc1OCC2
NC(=O)[C@@H]1CCCN1c1cc2c(cn1)-c1nc(-c3ncnn3-c3ccccc3Cl)cn1CCO2
CC(C)n1ncnc1-c1cc2n(n1)-c1cc(C(=O)N3CCC(O)CC3)ccc1OCC2
CCc1ccc2c(c1)OCCn1cc(-c3nc(C)nn3C(C)C)nc1-2
CC(C)n1ncnc1-c1cn2c(n1)-c1cnc(NCC(N)=O)cc1OCC2
CN(C)c1cc2c(cn1)-c1nc(-c3ncnn3-c3ccccc3Cl)cn1CCO2
CC(C)(CO)NC(=O)c1ccc2c(c1)-c1nc(-c3ncnn3CC(F)(F)F)cn1CCO2
Cc1nc(-c2cn3c(n2)-c2ccc(OCC(F)(F)F)cc2OCC3)n(C(C)C)n1
COc1ccc(CNc2cc3c(cn2)-c2nc(-c4ncnn4CC(F)(F)F)cn2CCO3)cc1OC
CC(C)n1nccc1-c1cn2c(n1)-c1ccc(CN)cc1OCC2
